From patent publication US9765378B2, “Preparation method of new recombinant antibacterial polypeptide medicine” (priority 2011, dated 2017)

Tested on: Staphylococcus (Staphylococcus aureus, Staphylococcus epidermidis, Staphylococcus saprophyticus, and Staphylococcus sciuri)
Experiment: in vitro inhibition and bactericidal effect on bovine mastitis isolated pathogenic bacteria: Staphylococcus
Format: cell-based
Conditions: control antibiotics
Experimental: (5) the recombinant antibacterial polypeptide medicine was tested for the in vitro inhibition and bactericidal effect on bovine mastitis isolated pathogenic bacteria.

Row | SMILES | inhibition and bactericidal effect of controls (MIC50/MBC50 not specified) [µg/mL]
1 | CC(=O)OCC1=C(C(=O)O)N2C(=O)[C@@H](NC(=O)Cc3cccs3)[C@H]2SC1 [cephalothin] | 2
2 | Cc1onc(-c2ccccc2)c1C(=O)N[C@@H]1C(=O)N2[C@@H]1SC(C)(C)[C@@H]2C(=O)O [oxacillin] | 4
